Measurements published in US20240316165A1, “POLYNUCLEOTIDES ENCODING PROPIONYL-COA CARBOXYLASE ALPHA AND BETA SUBUNITS FOR THE TREATMENT OF PROPIONIC ACIDEMIA” (ModernaTX, Inc., priority 2021, published 2024).

Experiment: tissue kinetics of the components of the drug product in rodents
Format: in vivo
Details: tissue (tissue with the maximum mean value; not named), read-out: maximum mean tissue terminal-phase elimination half-life (t1/2) (converted)
Description: An initial dosing interval of q3W is proposed on the basis of the duration of biomarker response observed in pharmacology studies in Peca−/−(A138T) mice. Specifically, at the minimum efficacious dose level of 0.5 mg/kg, decreases in plasma disease biomarkers were sustained for 3 weeks before rebounding toward pretreatment levels in propionic acidemia mice. The potential for drug product accumulation is considered low, with the planned clinical dosing regimen based on the kinetics of the components of the drug product.

half-life: 54.4 h
SMILES: CCCCCCCCCOC(=O)CCCCCCCN(CCO)CCCCCCCC(=O)OC(CCCCCCCC)CCCCCCCC [Compound II]
